Data as given in paper PMC10447463, “Data-mining unveils structure–property–activity correlation of viral infectivity enhancing self-assembling peptides” (Nature Communications, 2023).
Where two headings read alike, the source gives them in different places.

What was measured:
Assay type in all cases: physicochemical
[1] = Zeta-potential measurement; settings: for Zeta pot. / mV: 1 mg/mL in PBS pH 7.4 from 10 mg/mL DMSO stock, 1 d RT, 60 µL diluted in 600 µL 1 mM KCl, Zetasizer Nano ZS, Smoluchowski, mean of triplicate; for Zeta-pot. / mV: zeta potential of peptide, Fig S15 source data
Procedure, shortened: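 PBS pH 7.4, 1 mg/mL peptide (DMSO stock), 1 d RT aggregation; diluted in 1 mM KCl pre-read; mobility → zeta (Smoluchowski); n = 3, 2 expts averaged.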

[2] = Turbidity, derived count rate of scattered light; settings: log10 of derived count rate of scattered light, Figure 7B
[3] = β-sheet content by ATR-FT-IR
Procedure, shortened: (§1)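 First, PNF was ultrafiltered (3 kDa MWCO, 16200 x g, 45 min, 4 °C). Next, filtrate and unfiltered sample were lyophilized and taken up in DMSO. Then fluorescamine was added for 20 min at RT before reading ex 365/em 470 nm. β-sheet: ATR FT-IR of lyophilized 1 mg/mL PNF.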

[4] = Conversion rate (CR) assay with fluorescamine
Procedure, shortened: as §1

Row | Substance | Zeta pot. / mV [1] | Zeta-Potential / mV ([1]; mean, Figure 6C) | Zeta category ( +1 = if > 4 mV;-1 = if < -4 mV; 0 = -4mV to 4 mV) [1] | Zeta-pot. / mV [1] | other results
1 | KLKLTLT | 1.713 mV | 1.713 mV |  |  | 
2 | KIKIQINMWQRGD [VH17-II] |  |  | 0 (0 = -4mV to 4 mV) | 1.69 mV | Zeta Pot. / mV ([1]; mean, Std in separate column): 1.69 mV
3 | RVRVTVT | -3.713 mV | -3.713 mV |  |  | 
4 | KYFIL [reference compound] | -7.2 mV |  |  |  | Zeta-Potential / mV ([1]; mean, Figure 7B): -7.18 mV; Log10 Count Rate [2]: 4.277
5 | GYVIIK [reference compound] | 9.9 mV |  |  |  | Zeta-Potential / mV ([1]; mean, Figure 7B): 9.88 mV; Log10 Count Rate [2]: 1.476
6 | NMWQKFKFQF [JG11] |  |  |  | 9.56 mV | Zeta category ( +1 = if > 4 mV;-1 = if < -4 mV; 0 = -4mV to 4 mV) ([1]; FigS26): 1 (+1 = if > 4 mV)
7 | KIKIQINMWWWQ [VH12] |  |  | 1 (+1 = if > 4 mV) | 9.45 mV | Zeta Pot. / mV ([1]; mean, Std in separate column): 9.45 mV
8 | KAKLTCT | -2.2992 mV | -2.2992 mV |  |  | 
9 | KIKIWIW |  | 17.23 mV |  |  | 
10 | HLHLPLL [CN14] |  |  | -1 (-1 = if < -4 mV) | -9.053 mV | FTIR ß-sheet content/ % ([3]; ATR-FT-IR): 49.19%; Zeta Pot. / mV [1]: -9.053 mV; Conversion Rate / % ([4]; fluorescamine assay): 37.51%
11 | KIKIQIN [JGB3] |  |  | 0 (0 = -4mV to 4 mV) | 3.34 mV | Zeta Pot. / mV ([1]; mean, Std in separate column): 3.34 mV
12 | HHHHKAKAKAKAWWWW [TM8] |  |  | 1 (+1 = if > 4 mV) | 17.4 mV | Zeta Pot. / mV [1]: 17.4 mV
13 | CKIKIWIW |  | 19.13 mV |  |  | 
14 | NMWQKAKAQA [JG10] |  |  |  | -5.56 mV | Zeta category ( +1 = if > 4 mV;-1 = if < -4 mV; 0 = -4mV to 4 mV) ([1]; FigS26): -1 (-1 = if < -4 mV)
15 | KLKLKLQL [TG16] |  |  | 1 (+1 = if > 4 mV) | 8.39 mV | Zeta Pot. / mV [1]: 8.39 mV
16 | CRLRVGVS | 10.53 mV | 10.53 mV |  |  | 
17 | RFWFWFW |  | 13.63 mV |  |  | 

Row | Substance | Zeta pot. / mV [1] | Zeta-Potential / mV ([1]; mean, Figure 6C) | Zeta category ( +1 = if > 4 mV;-1 = if < -4 mV; 0 = -4mV to 4 mV) [1] | Zeta-pot. / mV [1] | other results
18 | RATVYV [reference compound] | -5.2 mV |  |  |  | Zeta-Potential / mV ([1]; mean, Figure 7B): -5.17 mV; Log10 Count Rate [2]: 1.621
19 | RVHLGLG | -6.01 mV | -6.01 mV |  |  | 
20 | KVKVKVQV [JG14 / TG14] |  |  | 0 (0 = -4mV to 4 mV) | -3.41 mV | Zeta Pot. / mV [1]: -3.41 mV
21 | NKGAII [reference compound] | -9.5 mV |  |  |  | Zeta-Potential / mV ([1]; mean, Figure 7B): -9.46 mV; Log10 Count Rate [2]: 1.831
22 | KIKIQINAWQ [JR3-II] |  |  |  | 13.1 mV | Zeta category ( +1 = if > 4 mV;-1 = if < -4 mV; 0 = -4mV to 4 mV) ([1]; FigS26): 1 (+1 = if > 4 mV)
23 | KYKYQY [KB1] |  |  | -1 (-1 = if < -4 mV) | -4.2 mV | Zeta Pot. / mV [1]: -4.2 mV
24 | RQGNINIVA [reference compound] | 10.2 mV |  |  |  | Zeta-Potential / mV ([1]; mean, Figure 7B): 10.17 mV; Log10 Count Rate [2]: 1.551
25 | KIKIQINMAQ [JR2] |  |  |  | 3.07 mV | Zeta category ( +1 = if > 4 mV;-1 = if < -4 mV; 0 = -4mV to 4 mV) ([1]; FigS26): 0 (0 = -4mV to 4 mV)
26 | RINFWFW |  | 10.8 mV |  |  | 
27 | EIEIQINM [TM95 / (TM75)] |  |  | -1 (-1 = if < -4 mV) | -23.33 mV | FTIR ß-sheet content/ % [3]: 53.87%; Zeta Pot. / mV ([1]; mean, Std in separate column): -23.33 mV; Conversion Rate / % [4]: 79.85%
28 | KIKIQII [TG1 / (KM4)] |  |  | 1 (+1 = if > 4 mV) | 5.61 mV | Zeta Pot. / mV [1]: 5.61 mV; Zeta Pot. / mV ([1]; mean, Std in separate column): 5.61 mV
29 | IFQINS [reference compound] | -11.0 mV |  |  |  | Zeta-Potential / mV ([1]; mean, Figure 7B): -10.98 mV; Log10 Count Rate [2]: 1.56
30 | CRFRFHFH |  | 19.6 mV |  |  | 
31 | EIEIQINMWQ [VH8] |  |  | -1 (-1 = if < -4 mV) | -19.13 mV | FTIR ß-sheet content/ % [3]: 53.91%; Zeta Pot. / mV ([1]; mean, Std in separate column): -19.13 mV; Conversion Rate / % [4]: 89.92%
32 | KFKFQFNMW [BL5 / KB13] |  |  | 1 (+1 = if > 4 mV) | 22.6 mV | Zeta Pot. / mV ([1]; mean, Std in separate column): 22.6 mV
33 | KIWIWIW |  | 11.33 mV |  |  | 
